From patent US20060069132A1, “Azolecarboxamide herbicides” (priority 2004, published 2006)
Read-outs that look alike come from different tables or passages of the source.

How the values were obtained:
[1] = test system: morningglory; test: Test C pre-/postemergence herbicide test; type: in vivo, Ipomoea coccinea; set-up: key to Plant response rating, Morningglory: 0 = no effect, 100 = complete control; conditions: for Morningglory plant response rating: Preemergence, scale 0 to 100, 0 no effect, 100 complete control
Source text: (§1) Seeds of plant species selected from bermudagrass (Cynodon dactylon (L.) Pers.), Surinam grass (Urochloa decumbens (Staph) R. D. Webster, previously named Brachiaria decumbens Stapf), cocklebur (Xanthium strumarium L.), corn (Zea mays L.), large crabgrass (Digitaria sanguinalis (L.) Scop.), woolly cupgrass (Eriochloa villosa (Thunb.) Kunth), giant foxtail (Setaria faberi Herrm.), goosegrass (Eleusine indica (L.) Gaertn.), johnsongrass (Sorghum halepense (L.) Pers.), kochia (Kochia scoparia (L.) Schrad.), lambsquarters (Chenopodium album L.), morningglory (Ipomoea coccinea L.), eastern black nightshade (Solanum ptycanthum Dunal), yellow nutsedge (Cyperus esculentus L.), pigweed (Amaranthus retroflexus L.), common ragweed (Ambrosia elatior L.), soybean (Glycine max (L.) Merr.), common (oilseed) sunflower (Helianthus annuus L.) and velvetleaf (Abutilon theophrasti Medik.) were planted and treated preemergence with test chemicals formulated in a non-phytotoxic solvent mixture which included a surfactant.
(§2) At the same time, plants selected from these crop and weed species and also winter barley (Hordeum vulgare L.), blackgrass (Alopecurus myosuroides Huds.), canarygrass (Phalaris minor Retz.), chickweed (Stellaria media (L.) Vill.), downy bromegrass (Bromus tectorum L.), green foxtail (Setaria viridis (L.) Beauv.), Italian ryegrass (Lolium multiflorum Lam.), wheat (Triticum aestivum L.), wild oat (Avenafatua L.) and windgrass (Apera spica-venti (L.) Beauv.) were treated with postemergence applications of some of the test chemicals formulated in the same manner. Plants ranged in height from 2 to 18 cm (1- to 4-leaf stage) for postemergence treatments. Plant species in the flooded paddy test consisted of rice (Oryza sativa), smallflower umbrella sedge (Cyperus difformis L.), ducksalad (Heteranthera limosa (Sw.) Willd.) and barnyardgrass (Echinochloa crus-galli (L.) Beauv.) grown to the 2-leaf stage for testing. Treated plants and controls were maintained in a greenhouse for 12 to 14 days, after which time all species were compared to controls and visually evaluated. Plant response ratings, summarized in Table C, are based on a scale of 0 to 100 where 0 is no effect and 100 is complete control. A dash (-) response means no test result.

[2] = test system: common ragweed; test: Test C pre-/postemergence herbicide test; type: in vivo, Ambrosia elatior; set-up: key to Plant response rating, Ragweed: 0 = no effect, 100 = complete control; conditions: for Ragweed plant response rating: Preemergence, scale 0 to 100, 0 no effect, 100 complete control
Source text: as §1, §2

[3] = test system: giant foxtail; test: Test A pre-/postemergence herbicide test; type: in vivo, Setaria faberi; conditions: for pest or weed control at 500 g/ha / pest or weed control at 2000 g/ha: Setaria faberi, 240 h
Summary of the method: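 Visual injury rating on a 0–100 scale (0 no effect, 100 complete control) versus untreated controls, about ten days after treatment in greenhouse. Pre: directed soil spray onto seeded sandy loam. Post: spray to runoff on plants 2–10 cm tall at one- to two-leaf stage.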

[4] = 62 g ai/ha, preemergence, scale 0 to 100
[5] = 125 g ai/ha, scale 0 (no effect) to 100 (complete control), visual, 12 to 14 days, preemergence
[6] = 250 g ai/ha, scale 0-100, preemergence
[7] = 500 g ai/ha, scale 0 to 100 (0 no effect, 100 complete control), visual, 12 to 14 days, preemergence
[8] = 250 g ai/ha, scale 0 to 100 (0 no effect, 100 complete control), visual, 12 to 14 days, preemergence
[9] = Ipomoea, pre-emergence, 125 g ai/ha, scale 0 (no effect) to 100 (complete control), visual, 12 to 14 days, read-out: Plant response rating, Morningglory
[10] = Ambrosia artemisiifolia, pre-emergence, 125 g ai/ha, scale 0 (no effect) to 100 (complete control), visual, 12 to 14 days, read-out: Plant response rating, Ragweed

Structure (SMILES)	Plant response rating, Morningglory [1, 4]	Plant response rating, Morningglory [1, 6]	Plant response rating, Morningglory [1, 7]	Plant response rating, Ragweed [2, 4]	Plant response rating, Ragweed [2, 6]	Plant response rating, Ragweed [2, 7]	Plant response rating (0 = no effect, 100 = complete control), Morningglory ([1]; 62 g ai/ha, preemergence)	Morningglory plant response rating ([1]; 500 g ai/ha)	Plant response rating (0 = no effect, 100 = complete control), Ragweed ([2]; 62 g ai/ha, preemergence)	Ragweed plant response rating ([2]; 500 g ai/ha)	pest or weed control at 125 g/ha [1, 9]	pest or weed control at 125 g/ha [2, 10]	also measured
CCN(C)C(=O)c1ccc(F)c(NC(=O)C2CC(C(C)(C)C)=NN2CC)c1 (racemic) [Compound 307]	0	10	15	80	100	100							Plant response rating, Morningglory [1, 5]: 10
CCC1=NN(C(C)(C)C)CC1C(=O)Nc1cc(C(=O)N(C)C)ccc1F (racemic) [Compound 343]	5	100	100	70	90	100							Plant response rating (0 = no effect, 100 = complete control), Morningglory ([1]; 125 g ai/ha, preemergence): 60; Plant response rating (0 = no effect, 100 = complete control), Ragweed ([2]; 125 g ai/ha, preemergence): 90
CCN(C)C(=O)c1cccc(NC(=O)c2cc(C(C)(C)C)nn2CC)c1 [Compound 48]							0	20	0	100			Plant response rating, Morningglory [1, 8]: 0; Plant response rating, Ragweed [2, 5]: 5; Plant response rating, Ragweed [2, 8]: 70
CCn1nc(C(C)(C)C)cc1C(=O)Nc1cccc2c1CN(C)C2=O [Compound 55, N-(2,3-dihydro-2-methyl-1-oxo-1H-isoindol-4-yl)-3-(1,1-dimethylethyl)-1-ethyl-1H-pyrazole-5-carboxamide]							0	75	0	80	0%	0%	pest or weed control at 500 g/ha ([3]; post-emergence, Postemergence, 500 g ai/ha, 0 to 100 scale, 0 no effect, 100 complete control, read-out: Plant response rating, Foxtail, Giant): 30%; pest or weed control at 2000 g/ha ([3]; post-emergence, Postemergence, 2000 g ai/ha, 0 to 100 scale, 0 no effect, 100 complete control, read-out: Plant response rating, Foxtail, Giant): 80%; pest or weed control at 500 g/ha ([3]; pre-emergence, Preemergence, 500 g ai/ha, visual rating, 0 to 100 scale (0 no effect, 100 complete control), read-out: Foxtail, Giant plant response rating): 60%; pest or weed control at 2000 g/ha ([3]; pre-emergence, Preemergence, 2000 g ai/ha, 0 to 100 scale, 0 no effect, 100 complete control, read-out: Foxtail, Giant plant response rating): 100%; pest or weed control at 250 g/ha ([1]; Ipomoea, pre-emergence, 250 g ai/ha, scale 0 to 100 (0 no effect, 100 complete control), visual, 12 to 14 days, read-out: Plant response rating, Morningglory): 20%; pest or weed control at 250 g/ha ([2]; Ambrosia artemisiifolia, pre-emergence, 250 g ai/ha, scale 0 to 100 (0 no effect, 100 complete control), visual, 12 to 14 days, read-out: Plant response rating, Ragweed): 0%
C=Cn1nc(C(C)(C)C)cc1C(=O)Nc1cccc(C(C)=O)c1 [Compound 127]													Foxtail, Giant plant response rating ([3]; Postemergence, 500 g ai/ha, 0 to 100 scale, 0 no effect, 100 complete control): 30; Plant response rating, Foxtail, Giant ([3]; Postemergence, 2000 g ai/ha, 0 to 100 scale, 0 no effect, 100 complete control): 30; Foxtail, Giant plant response rating ([3]; Preemergence, 500 g ai/ha, visual rating, 0 to 100 scale (0 no effect, 100 complete control)): 20; Foxtail, Giant plant response rating ([3]; Preemergence, 2000 g ai/ha, visual rating, 0 to 100 scale (0 no effect, 100 complete control)): 35
CCc1nn(C(C)(C)C)cc1C(=O)Nc1cccc(C(=O)N(CC)CC)c1 [Compound 182, N-[3-[(diethylamino)carbonyl]phenyl]-1-(1,1-dimethylethyl)-3-ethyl-1H-pyrazole-4-carboxamide]								100		65	15%	20%	pest or weed control at 62 g/ha ([1]; Ipomoea, pre-emergence, 62 g ai/ha, preemergence, scale 0 to 100, read-out: Plant response rating, Morningglory): 0%; pest or weed control at 62 g/ha ([2]; Ambrosia artemisiifolia, pre-emergence, 62 g ai/ha, preemergence, scale 0 to 100, read-out: Plant response rating, Ragweed): 20%
